Target: T1, human MC5R (hMC5R) (Homo sapiens, UniProt P33032)
T1 construct: purchased Perkin Elmer RBXMC5M400UA
Test: Human MC5R radioligand binding assay (membranes, [125I] NDP-MSH displacement)
Conditions: hMC5R binding; tested as trifluoroacetate or hydrochloride salts, or free bases; read-out: MC5R radioligand IC50
Description: Assessments of compound binding to human MC5R (hMC5R) ) by displacement of an ^125I-labeled NDP-MSH receptor ligand peptide were performed essentially as described in the data sheets produced by Perkin Elmer to accompany their frozen hMC5R membranes (Perkin Elmer catalog number RBXMC5M400UA).
[^125I] NDP-MSH: radiolabeled in house and purified by HPLC:
• Na^125I (0.5 mCi, 17.4 Ci/mg) was added to 50 μL sodium phosphate (50 mM, pH7.4) in an eppendorf tube precoated with IODOGEN. After incubation for 10 mins the phosphate buffer containing the iodine was added to NDP-MSH (10 ul at 1 mg/mL) in a separate eppendorf tube. This was incubated for a further 10 mins. The iodinated NDP-MSH was purified by HPLC on a Zorbax SB 300 column using solvent A: 0.05% TFA and solvent B: 90% acetonitrile 0.045% TFA with a linear gradient, 0-67% B over 60 mins. […] Resuspended membranes were kept on ice until they were added to the wells of the plate. Binding Protocol for 400 microassays per vial: • Assays were performed in 96 well polypropylene plates. […] This was incubated for 1 hr at 37° C.

T1 sequence (P33032 whole entry): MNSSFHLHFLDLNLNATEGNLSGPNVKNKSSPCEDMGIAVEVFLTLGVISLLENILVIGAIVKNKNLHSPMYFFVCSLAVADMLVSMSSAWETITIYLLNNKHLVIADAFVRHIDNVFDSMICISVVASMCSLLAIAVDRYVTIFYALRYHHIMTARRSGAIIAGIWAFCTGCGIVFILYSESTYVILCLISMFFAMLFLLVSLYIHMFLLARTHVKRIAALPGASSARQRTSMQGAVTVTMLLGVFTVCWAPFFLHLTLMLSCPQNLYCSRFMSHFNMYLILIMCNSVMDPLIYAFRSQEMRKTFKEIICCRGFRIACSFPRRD

IC50 [nM]	SMILES
< 100	CCCCCN(C)CC[C@@H]1N[C@H](CNC(=O)c2ccc(Cl)c(Cl)c2)CCN(C[C@@H](CC)c2ccccc2)C1=O [Compound 444, 3,4-dichloro-N-(((3S,5S)-3-(2-(methyl(pentyl)amino)ethyl)-2-oxo-1-((S)-2-phenylbutyl)-1,4-diazepan-5-yl)methyl)benzamide]
< 10000	NCCC[C@@H]1N[C@H](CNC(=O)c2ccc3ccccc3c2)CCN(Cc2ccccc2Cl)C1=O [Compound 317, N-(((3S,5S)-3-(3-aminopropyl)-1-(2-chlorobenzyl)-2-oxo-1,4-diazepan-5-yl)methyl)-2-naphthamide]
< 1000	CC[C@H](CN1CC[C@@H](CNC(=O)c2ccc(Cl)c(Cl)c2)N[C@@H](CN2CCCCC2)C1=O)c1ccccc1 [Compound 416, 3,4-dichloro-N-(((3S,5S)-2-oxo-1-((S)-2-phenylbutyl)-3-(piperidin-1-ylmethyl)-1,4-diazepan-5-yl)methyl)benzamide]
< 10	C=C(C)[C@H](CC)CN1CC[C@@H](CNC(=O)c2ccc3cc(Cl)ccc3c2)N[C@@H](CCN2CCCCC2)C1=O [Compound 479, 6-chloro-N-(((3S,5S)-1-((S)-2-ethyl-3-methylbut-3-enyl)-2-oxo-3-(2-(piperidin-1-yl)ethyl)-1,4-diazepan-5-yl)methyl)-2-naphthamide]
< 1000	CC(C)(NC(=O)/C=C/c1ccc(Cl)cc1)[C@@H]1CCN(CC(c2ccccc2)c2ccccc2)C(=O)[C@H](CCN)N1 [Compound 419, (E)-N-(2-((3S,5S)-3-(2-aminoethyl)-1-(2,2-diphenylethyl)-2-oxo-1,4-diazepan-5-yl)propan-2-yl)-3-(4-chlorophenyl)acrylamide]
< 1000	CC[C@H](CN1CC[C@@H](CNC(=O)c2ccc(Cl)c(Cl)c2)N[C@@H](CCN2CCCC(F)(F)C2)C1=O)c1ccccc1 [Compound 484, 3,4-dichloro-N-(((3S,5S)-3-(2-(3,3-difluoropiperidin-1-yl)ethyl)-2-oxo-1-((S)-2-phenylbutyl)-1,4-diazepan-5-yl)methyl)benzamide]
< 1000	NCCC[C@@H]1N[C@H](CNC(=O)c2ccc3ccccc3c2)CCN(Cc2cc(F)cc(Cl)c2)C1=O [Compound 312, N-(((3S,5S)-3-(3-aminopropyl)-1-(3-chloro-5-fluorobenzyl)-2-oxo-1,4-diazepan-5-yl)methyl)-2-naphthamide]
< 10000	NCC[C@@H]1N[C@H](CNC(=O)c2ccc(C(F)(F)F)cc2)CCN(CC(c2ccccc2)c2ccccc2)C1=O [Compound 435, N-(((3S,5S)-3-(2-aminoethyl)-1-(2,2-diphenylethyl)-2-oxo-1,4-diazepan-5-yl)methyl)-4-(trifluoromethyl)benzamide]
< 10	CC[C@H](CN1CC[C@@H](CNC(=O)c2ccc3cc(Cl)ccc3c2)N[C@@H](CCN2CCCCC2)C1=O)c1ccsc1 [Compound 511, 6-chloro-N-(((3S,5S)-2-oxo-3-(2-(piperidin-1-yl)ethyl)-1-((S)-2-(thiophen-3-yl)butyl)-1,4-diazepan-5-yl)methyl)-2-naphthamide]
< 1000	C=C(C)C(CC)CN1CC[C@@H](CNC(=O)c2ccc(Cl)c(Cl)c2)N[C@@H](CCN2CCCCC2)C1=O (stereo partly drawn) [Compound 476, 3,4-dichloro-N-(((3S,5S)-1-(2-ethyl-3-methylbut-3-enyl)-2-oxo-3-(2-(piperidin-1-yl)ethyl)-1,4-diazepan-5-yl)methyl)benzamide]
< 1000	NCC[C@@H]1N[C@H](CNC(=O)c2ccc(Cl)c(Cl)c2)CCN(Cc2ccc(Cl)cc2Cl)C1=O [Compound 502, N-(((3S,5S)-3-(2-aminoethyl)-1-(2,4-dichlorobenzyl)-2-oxo-1,4-diazepan-5-yl)methyl)-3,4-dichlorobenzamide]
< 100	CC1CC(C)CC(CN2CC[C@@H](CNC(=O)c3ccc(Cl)c(Cl)c3)N[C@@H](CCN3CCCCC3)C2=O)C1 (stereo partly drawn) [Compound 386, 3,4-dichloro-N-(((3S,5S)-1-((3,5-dimethylcyclohexyl)methyl)-2-oxo-3-(2-(piperidin-1-yl)ethyl)-1,4-diazepan-5-yl)methyl)benzamide]

The remaining lines, values behind:

SMILES	IC50 [nM]
N=C(N)NCCC[C@@H]1N[C@H](CNC(=O)c2ccc3ccccc3c2)CCN(C[C@@H](NC(=O)C2CCCCC2)c2ccccc2)C1=O [Compound 270, N-(((3S,5S)-1-((S)-2-(cyclohexanecarboxamido)-2-phenylethyl)-3-(3-guanidinopropyl)-2-oxo-1,4-diazepan-5-yl)methyl)-2-naphthamide]	< 10000
O=C(NC[C@@H]1CCN(CC(c2ccccc2)c2ccccc2)C(=O)[C@H](CCCNC2CCC2)N1)c1ccc2ccccc2c1 [Compound 247, N-(((3S,5S)-3-(3-(cyclobutylamino)propyl)-1-(2,2-diphenylethyl)-2-oxo-1,4-diazepan-5-yl)methyl)-2-naphthamide]	< 100
CC(=O)NCCC[C@@H]1N[C@H](CNC(=O)/C=C/c2ccc(C)cc2)CCN(CC(c2ccccc2)c2ccccc2)C1=O [Compound 293, (E)-N-(((3S,5S)-3-(3-acetamidopropyl)-1-(2,2-diphenylethyl)-2-oxo-1,4-diazepan-5-yl)methyl)-3-p-tolylacrylamide]	< 1000
N=C(N)NCCC[C@@H]1N[C@H](CNC(=O)c2ccc3ccccc3c2)CCN(C[C@@H](NC(=O)c2ccccc2)c2ccccc2)C1=O [Compound 287, N-(((3S,5S)-1-((S)-2-benzamido-2-phenylethyl)-3-(3-guanidinopropyl)-2-oxo-1,4-diazepan-5-yl)methyl)-2-naphthamide]	< 1000
N=C(N)NCCC[C@@H]1N[C@H](CNC(=O)c2ccc3ccccc3c2)CCN(Cc2cccc3ccccc23)C1=O [Compound 263, N-(((3S,5S)-3-(3-guanidinopropyl)-1-(naphthalen-1-ylmethyl)-2-oxo-1,4-diazepan-5-yl)methyl)-2-naphthamide]	< 10000
CCOc1ccc(/C=C/C(=O)NC[C@@H]2CCN(CC(c3ccccc3)c3ccccc3)C(=O)[C@H](CCCNC(=N)N)N2)cc1 [Compound 210, (E)-N-(((3S,5S)-1-(2,2-diphenylethyl)-3-(3-guanidinopropyl)-2-oxo-1,4-diazepan-5-yl)methyl)-3-(4-ethoxyphenyl)acrylamide]	< 100
NCCCC[C@@H]1N[C@H](CNC(=O)c2cc3ccccc3o2)CCN(CC(c2ccccc2)c2ccccc2)C1=O [Compound 129, N-(((3S,5S)-3-(4-aminobutyl)-1-(2,2-diphenylethyl)-2-oxo-1,4-diazepan-5-yl)methyl)benzofuran-2-carboxamide]	< 10000
N=C(N)NCCC[C@@H]1N[C@H](CNC(=O)c2ccc3ccccc3c2)CCN(Cc2ccc3ccccc3c2)C1=O [Compound 251, N-(((3S,5S)-3-(3-guanidinopropyl)-1-(naphthalen-2-ylmethyl)-2-oxo-1,4-diazepan-5-yl)methyl)-2-naphthamide]	< 10000
N=C(N)NCCC[C@@H]1N[C@H](CNC(=O)c2ccc3ccccc3c2)CCN(Cc2cc(Cl)cc(Cl)c2)C1=O [Compound 14, N-(((3S,5S)-1-(3,5-dichlorobenzyl)-3-(3-guanidinopropyl)-2-oxo-1,4-diazepan-5-yl)methyl)-2-naphthamide]	< 100
O=C(NC[C@@H]1CCN(CC(c2ccccc2)c2ccccc2)C(=O)[C@H](CCCNCc2ccccc2)N1)c1ccc2ccccc2c1 [Compound 245, N-(((3S,5S)-3-(3-(benzylamino)propyl)-1-(2,2-diphenylethyl)-2-oxo-1,4-diazepan-5-yl)methyl)-2-naphthamide]	< 100
